Experimental data: US20050004038A1, “Bivalent inhibitors of Glutathione-S-Transferases” (priority 2003, published 2005)
Where “and” joins values, the source holds several entries; their conditions need not be identical. Equal entries are not always repeated.

How the values were obtained:
[1] = biological target: T1, human glutathione S-transferase P1-1 (GSTP1-1) (Homo sapiens, UniProt P09211); assay: CDNB assay of GST activity and inhibition, GST P1-1; assay type: biochemical; conditions: for IC50: first value of the cell GSTP1-1/GSTA1-1, CDNB assay, 20 nM GST; for fold greater affinity for GSTP1-1 (lower IC50) than the ligand domain alone: versus corresponding ligand domain (GS-NB/IId, IIg, IIId, IVk)
T1 construct: made in house; host or cells: E. coli
Procedure: (§1) GST isozymes. […] The enzyme was incubated with 10 mM dithiothreitol to ensure complete reduction of cysteine residues, followed by extensive dialysis to remove the reducing agent. […] Plasmodium GST (pGST) was a gift from Dr. Katja Becker (Justus Liebig University of Giessen), and murine GSTP and GSTA were gifts from Dr. Dave Eaton (University of Washington). Except where otherwise stated (i.e. testing of pGST in Example 6.4.5 and testing of murine GSTs in Example 6.4.7), GST isozymes tested were from human.
(§2) GST assays. Assays of GST activity and inhibition were performed with chloro-2,4-dinitrobenzene (CDNB) as the electrophilic substrate. Except where otherwise stated, GST concentration was 20 nM. […] Rates were determined by measuring absorption at 340 nm (λmax of glutathione-dinitrobenzene) for 1 minute on a Beckman DU 7400 spectrophotometer. For IC50 determinations, assays were performed at inhibitor concentrations ranging over at least […] (from 100-fold above the IC50 to 100-fold below). Data were fit to a sigmoidal dose-response function using GraphPad Prism to determine the 50% inhibitory concentration.

[2] = biological target: T2, human glutathione S-transferase A1-1 (GSTA1-1) (Homo sapiens, UniProt P08263); assay: CDNB assay of GST activity and inhibition, GST A1-1; assay type: biochemical; conditions: second value of the cell GSTP1-1/GSTA1-1, 20 nM GST
T2 construct: made in house; host or cells: E. coli
T2 sequence (P08263 1-222): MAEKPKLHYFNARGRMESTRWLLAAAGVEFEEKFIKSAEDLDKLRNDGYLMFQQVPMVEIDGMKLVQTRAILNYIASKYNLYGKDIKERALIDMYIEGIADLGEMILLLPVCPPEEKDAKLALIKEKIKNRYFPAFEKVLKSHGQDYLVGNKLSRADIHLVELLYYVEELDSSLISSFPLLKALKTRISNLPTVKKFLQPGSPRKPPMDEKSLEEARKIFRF
Procedure: as §1, §2

T1 sequence (P09211 2-210 limits assumed): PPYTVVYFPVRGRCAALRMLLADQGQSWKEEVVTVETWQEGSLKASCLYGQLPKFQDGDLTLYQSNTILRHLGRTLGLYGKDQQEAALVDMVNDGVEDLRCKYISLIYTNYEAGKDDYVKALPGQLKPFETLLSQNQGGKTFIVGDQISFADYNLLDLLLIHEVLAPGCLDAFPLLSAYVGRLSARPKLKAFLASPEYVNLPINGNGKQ

| SMILES | IC50 [1] | IC50 [2] | fold greater affinity for GSTP1-1 (lower IC50) than the ligand domain alone [1] | isozyme specificity GSTP1-1 versus GSTA1-1 ([1]; in words) | fold lower IC50 for GSTP1-1 than the monovalent inhibitor ([1]; versus IVj) [fold] |
| --- | --- | --- | --- | --- | --- |
| Nc1c(S(=O)(=O)O)cc(Nc2cccc(S(=O)(=O)CCNCCOCCOCCNCCS(=O)(=O)c3cccc(Nc4cc(S(=O)(=O)O)c(N)c5c4C(=O)c4ccccc4C5=O)c3)c2)c2c1C(=O)c1ccccc1C2=O [IIIa] | 0.044 µM | > 100 µM |  |  |  |
| Nc1c(S(=O)(=O)O)cc(Nc2cccc(S(=O)(=O)CCNCCOCCOCCOCCNCCS(=O)(=O)c3cccc(Nc4cc(S(=O)(=O)O)c(N)c5c4C(=O)c4ccccc4C5=O)c3)c2)c2c1C(=O)c1ccccc1C2=O [IIIb] | 0.072 µM | > 100 µM |  |  |  |
| Nc1c(S(=O)(=O)O)cc(Nc2cccc(S(=O)(=O)CCNCCCNC(=O)c3cccc(C(=O)NCCCNCCS(=O)(=O)c4cccc(Nc5cc(S(=O)(=O)O)c(N)c6c5C(=O)c5ccccc5C6=O)c4)c3)c2)c2c1C(=O)c1ccccc1C2=O [IIIc] | 0.44 µM | > 100 µM |  |  |  |
| CCNCCS(=O)(=O)c1cccc(Nc2cc(S(=O)(=O)O)c(N)c3c2C(=O)c2ccccc2C3=O)c1 [IIId*, reference compound] | 5 µM | > 100 µM |  |  |  |
| NC(=O)c1cc(CNCCS(=O)(=O)c2cccc(Nc3cc(S(=O)(=O)O)c(N)c4c3C(=O)c3ccccc3C4=O)c2)cc(CNCCS(=O)(=O)c2cccc(Nc3cc(S(=O)(=O)O)c(N)c4c3C(=O)c3ccccc3C4=O)c2)c1 [IIIe] | 0.557 µM | > 10 µM |  |  |  |
| NC(=O)c1cc(CNC(=O)CNCCS(=O)(=O)c2cccc(Nc3cc(S(=O)(=O)O)c(N)c4c3C(=O)c3ccccc3C4=O)c2)cc(CNC(=O)CNCCS(=O)(=O)c2cccc(Nc3cc(S(=O)(=O)O)c(N)c4c3C(=O)c3ccccc3C4=O)c2)c1 [IIIf] | 0.437 µM | > 1 µM |  |  |  |
| NC(=O)c1cc(CNC(=O)CCNCCS(=O)(=O)c2cccc(Nc3cc(S(=O)(=O)O)c(N)c4c3C(=O)c3ccccc3C4=O)c2)cc(CNC(=O)CCNCCS(=O)(=O)c2cccc(Nc3cc(S(=O)(=O)O)c(N)c4c3C(=O)c3ccccc3C4=O)c2)c1 [IIIg] | 0.162 µM | 2.5 µM |  |  |  |
| NC(=O)c1cc(CNC(=O)CCCNCCS(=O)(=O)c2cccc(Nc3cc(S(=O)(=O)O)c(N)c4c3C(=O)c3ccccc3C4=O)c2)cc(CNC(=O)CCCNCCS(=O)(=O)c2cccc(Nc3cc(S(=O)(=O)O)c(N)c4c3C(=O)c3ccccc3C4=O)c2)c1 [IIIh] | ~0.022 µM and 0.022 µM | > 1 µM | approximately 220 fold |  |  |
| NC(=O)c1cc(CNC(=O)CCCCCNCCS(=O)(=O)c2cccc(Nc3cc(S(=O)(=O)O)c(N)c4c3C(=O)c3ccccc3C4=O)c2)cc(CNC(=O)CCCCCNCCS(=O)(=O)c2cccc(Nc3cc(S(=O)(=O)O)c(N)c4c3C(=O)c3ccccc3C4=O)c2)c1 [IIIi] | 0.203 µM | > 1 µM |  |  |  |
| NC(=O)c1cc(CNC(=O)CCCCCCCNCCS(=O)(=O)c2cccc(Nc3cc(S(=O)(=O)O)c(N)c4c3C(=O)c3ccccc3C4=O)c2)cc(CNC(=O)CCCCCCCNCCS(=O)(=O)c2cccc(Nc3cc(S(=O)(=O)O)c(N)c4c3C(=O)c3ccccc3C4=O)c2)c1 [IIIj] | 0.267 µM | > 0.22 µM |  |  |  |
| NC(=O)c1cccc(CNC(=O)CCCNCCS(=O)(=O)c2cccc(Nc3cc(S(=O)(=O)O)c(N)c4c3C(=O)c3ccccc3C4=O)c2)c1 [IIIl*, reference compound] | 0.854 µM | > 20 µM | approximately 6 fold |  |  |
| NC(CCC(=O)NC(CSc1ccc(C(=O)OCCOCCOCCOCCOC(=O)c2ccc(SCC(NC(=O)CCC(N)C(=O)O)C(=O)NCC(=O)O)c([N+](=O)[O-])c2)cc1[N+](=O)[O-])C(=O)NCC(=O)O)C(=O)O (stereo not drawn) [IIa] | 4.5 µM | 29 µM |  |  |  |
| NC(CCC(=O)NC(CSc1ccc(C(=O)OCCOC(=O)c2cccc(C(=O)OCCOC(=O)c3ccc(SCC(NC(=O)CCC(N)C(=O)O)C(=O)NCC(=O)O)c([N+](=O)[O-])c3)c2)cc1[N+](=O)[O-])C(=O)NCC(=O)O)C(=O)O (stereo not drawn) [IIb] | 2.9 µM | 1.6 µM |  |  |  |
| NC(CCC(=O)NC(CSc1ccc(C(=O)OCCCOC(=O)c2cccc(C(=O)OCCCOC(=O)c3ccc(SCC(NC(=O)CCC(N)C(=O)O)C(=O)NCC(=O)O)c([N+](=O)[O-])c3)c2)cc1[N+](=O)[O-])C(=O)NCC(=O)O)C(=O)O (stereo not drawn) [IIc] | 0.28 µM | 3.3 µM |  |  |  |
| CCOC(=O)c1ccc(SCC(NC(=O)CCC(N)C(=O)O)C(=O)NCC(=O)O)c([N+](=O)[O-])c1 (stereo not drawn) [IId*, reference compound] | 21 µM | 30 µM |  | no substantial isozyme specificity |  |
| CCC(CSCC(NC(=O)CCC(N)C(=O)O)C(=O)NCC(=O)O)C(=O)c1ccc(OCC(=O)NCCCC(=O)NCc2cc(CNC(=O)CCCNC(=O)COc3ccc(C(=O)C(CC)CSCC(NC(=O)CCC(N)C(=O)O)C(=O)NCC(=O)O)c(Cl)c3Cl)cc(C(N)=O)c2)c(Cl)c1Cl (stereo not drawn) [IIe] | 0.353 µM | 0.0038 µM | 30 fold |  |  |
| CCC(CSCC(NC(=O)CCC(N)C(=O)O)C(=O)NCC(=O)O)C(=O)c1ccc(OCC(=O)NCCCC(=O)NCc2cccc(C(N)=O)c2)c(Cl)c1Cl (stereo not drawn) [IIf*, reference compound] | 1.5 µM | 5.83 µM |  |  |  |
| C=C(CC)C(=O)c1ccc(OCC(=O)Nc2cccc(NC(=O)COc3ccc(C(=O)C(=C)CC)c(Cl)c3Cl)c2)c(Cl)c1Cl [IVa, Bis-1,3-ethacrynyl-phenylenediamine] | > 10 µM | 0.741 µM |  |  |  |
| C=C(CC)C(=O)c1ccc(OCC(=O)Nc2ccc(NC(=O)COc3ccc(C(=O)C(=C)CC)c(Cl)c3Cl)cc2)c(Cl)c1Cl [IVb, Bis-1,4-ethacrynyl-phenylenediamine] | > 10 µM | 1.31 µM |  |  |  |
| C=C(CC)C(=O)c1ccc(OCC(=O)NCc2cc(CNC(=O)COc3ccc(C(=O)C(=C)CC)c(Cl)c3Cl)cc(C(N)=O)c2)c(Cl)c1Cl [IVc] | 0.992 µM | 0.0297 µM |  |  |  |
| C=C(CC)C(=O)c1ccc(OCC(=O)NCC(=O)NCc2cc(CNC(=O)CNC(=O)COc3ccc(C(=O)C(=C)CC)c(Cl)c3Cl)cc(C(N)=O)c2)c(Cl)c1Cl [IVd] | 0.634 µM | 0.023 µM |  |  |  |
| C=C(CC)C(=O)c1ccc(OCC(=O)NCCC(=O)NCc2cc(CNC(=O)CCNC(=O)COc3ccc(C(=O)C(=C)CC)c(Cl)c3Cl)cc(C(N)=O)c2)c(Cl)c1Cl [IVe] | 1.2 µM | 0.012 µM and 0.0123 µM |  |  |  |
| C=C(CC)C(=O)c1ccc(OCC(=O)NCCCC(=O)NCc2cc(CNC(=O)CCCNC(=O)COc3ccc(C(=O)C(=C)CC)c(Cl)c3Cl)cc(C(N)=O)c2)c(Cl)c1Cl [IVf] | 0.589 µM | 0.014 µM |  |  |  |
| C=C(CC)C(=O)c1ccc(OCC(=O)NCCCCCCCC(=O)NCc2cc(CNC(=O)CCCCCCCNC(=O)COc3ccc(C(=O)C(=C)CC)c(Cl)c3Cl)cc(C(N)=O)c2)c(Cl)c1Cl [IVh] | 0.031 µM | 0.054 µM | approximately 129 fold |  | 403 |
| NC(CCC(=O)NC(CSCCCCCCCCOC(=O)CCCCCCCSCC(NC(=O)CCC(N)C(=O)O)C(=O)NCC(=O)O)C(=O)NCC(=O)O)C(=O)O (stereo not drawn) [Ia] | 0.36 µM | 0.2 µM |  |  |  |
| NC(CCC(=O)NC(CSCCCCCCCCCOC(=O)CCCCCCCSCC(NC(=O)CCC(N)C(=O)O)C(=O)NCC(=O)O)C(=O)NCC(=O)O)C(=O)O (stereo not drawn) [Ib] | 0.3 µM | 0.34 µM |  |  |  |
| NC(CCC(=O)NC(CSCCCCCCCCCCOC(=O)CCCCCCCSCC(NC(=O)CCC(N)C(=O)O)C(=O)NCC(=O)O)C(=O)NCC(=O)O)C(=O)O (stereo not drawn) [Ic] | 0.08 µM | 0.16 µM |  |  |  |
